Assay results reported in patent EP0075095A2, “Cephalosporin derivatives, process for their preparation, pharmaceutical compositions containing them and intermediates” (F. HOFFMANN-LA ROCHE & CO. Aktiengesellschaft, priority 1981, dated 1983).

Key:
Serratia marcescens = assay: Oral antimicrobial activity in vivo in the mouse (curative dose CD50), Serratia marcescens infection; set-up: species or system Maus; conditions: peroral dose at which 50% of tested mice survive, read-out: CD50, p.o.
Description: (§1) Die orale antimikrobielle Wirksamkeit der erwähnten Produkte kann anhand von in-vivo-Versuchen an der Maus nachgewiesen werden. Im nachstehenden bedeutet die kurative Dosis (CD50, p.o., mg/kg) diejenige perorale Dosis, bei der 50% der getesteten Mäuse überleben.
(§2) Ergebnis (CD50, p.o., mg/kg)

Streptococcus pyogenes = assay: Oral antimicrobial activity in vivo in the mouse (curative dose CD50), Streptococcus pyogenes infection; set-up: species or system Maus; conditions: peroral dose at which 50% of tested mice survive, read-out: CD50, p.o.
Description: as §1, §2

Escherichia coli = assay: Oral antimicrobial activity in vivo in the mouse (curative dose CD50), Escherichia coli infection; set-up: species or system Maus; conditions: peroral dose at which 50% of tested mice survive, read-out: CD50, p.o.
Description: as §1, §2

in vivo = conditions: mouse, po
Klebsiella pneumoniae = assay: Oral antimicrobial activity in vivo in the mouse (curative dose CD50), Klebsiella pneumoniae infection; set-up: species or system Maus; conditions: peroral dose at which 50% of tested mice survive, read-out: CD50, p.o.
Description: as §1, §2

| SMILES | ED50 (Serratia marcescens) [mg/kg] | ED50 (Streptococcus pyogenes) [mg/kg] | ED50 (Escherichia coli) [mg/kg] | LD50 at 24 h (in vivo) [mg/kg] | ED50 (Klebsiella pneumoniae) [mg/kg] |
| --- | --- | --- | --- | --- | --- |
| CC1=C(C(=O)O)N2C(=O)[C@@H](NC(=O)[C@H](N)c3ccccc3)[C@H]2SC1 [Cephalexin, reference compound] | > 50 | 1.8 | 3.2 | – | – |
| CO/N=C(\C(=O)N[C@@H]1C(=O)N2C(C(=O)OCOC(=O)C(C)(C)C)=C(CSc3nc(C(=O)OC)nn3C)CS[C@H]12)c1csc(N)n1 [Produkt A] | 1.5 | 0.72 | 0.07 | > 5000 | 3.7 |
| CCOC(=O)c1nc(SCC2=C(C(=O)OCOC(=O)C(C)(C)C)N3C(=O)[C@@H](NC(=O)/C(=N\OC)c4csc(N)n4)[C@H]3SC2)n(C)n1 [Produkt B] | 0.8 | 2.1 | – | > 5000 | – |
| CCn1nc(C(=O)OC)nc1SCC1=C(C(=O)OCOC(=O)C(C)(C)C)N2C(=O)[C@@H](NC(=O)/C(=N\OC)c3csc(N)n3)[C@H]2SC1 [Produkt C, Methylen-(6R,7R)-7-[(Z)-2-(2-Amino-4-thiazolyl)-2-(methoxyimino)acetamido]-3-[[[2-äthyl-5-(methoxycarbonyl)-2H-1,2,4-triazol-3-yl]thio]methyl]-8-oxo-5-thia-2-azabicyclo[4.2.0]oct-2-en-2-carboxylat-pivalat] | 2.54 | 0.53 | – | – | – |
| CO/N=C(\C(=O)N[C@@H]1C(=O)N2C(C(=O)OCOC(=O)C(C)(C)C)=C(CSc3nc(C(=O)OC)nn3CC(=O)OCOC(=O)C(C)(C)C)CS[C@H]12)c1csc(N)n1 [Produkt D, Methylen-(6R,7R)-7-[(Z)-2-(2-Amino-4-thiazolyl)-2-(methoxyimino)-acetamido]-3-[[[5-(methoxycarbonyl)-2-[[[(pivaloyloxy)methoxy]-carbonyl]methyl]-2H-1,2,4-triazol-3-yl]thio]-methyl]-8-oxo-5-thia-1-azabicyclo[4.2.0]oct-2-en-2-carboxylat-pivalat] | > 6 | 8.8 | – | > 5000 | 12.5 |
| CCCn1nc(C(=O)OC)nc1SCC1=C(C(=O)OCOC(=O)C(C)(C)C)N2C(=O)[C@@H](NC(=O)/C(=N\OC)c3csc(N)n3)[C@H]2SC1 [Produkt E] | 1.8 | 0.89 | 0.04 | > 5000 | 2.5 |
| CO/N=C(\C(=O)N[C@@H]1C(=O)N2C(C(=O)OCOC(=O)C(C)(C)C)=C(CSc3nc(C(=O)OC)nn3-c3ccccc3)CS[C@H]12)c1csc(N)n1 [Produkt F] | 5.8 | 1.5 | – | > 5000 | > 12 |
